# What was measured:
# 11β-HSD1 = biological target: T1, 11β-HSD1 (Homo sapiens, UniProt P28845); assay: Inhibition of 11β-HSD1 (cortisone to cortisol, human liver microsomes, cortisol ELISA); type: biochemical
# T1 construct: Human liver microsomes were used as a source of 11β-HSD1 enzyme; tissue XenoTech Lot No. 1410013; host or cells: pooled human liver microsomes, mixed gender
# Method in brief: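 Human liver microsomal conversion of cortisone to cortisol, incubated 2.5 h at 37 °C and stopped with 18β-glycyrrhetinic acid. Cortisol was quantified by ELISA against inhibitor-free controls.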
# 11β-HSD2 = biological target: T2, 11β-HSD2 (Homo sapiens, UniProt P80365); assay: Inhibition of 11β-HSD2 (cortisol to cortisone, human microsomes, cortisol ELISA); type: biochemical; settings: 2.5 h, 37 °C
# T2 construct: Human liver microsomes were used as a source of 11β-HSD2 enzyme; tissue XenoTech Lot No. 1710160; host or cells: human kidney microsomes, mixed gender (method text says human liver microsomes)
# T2 sequence (P80365 1-405): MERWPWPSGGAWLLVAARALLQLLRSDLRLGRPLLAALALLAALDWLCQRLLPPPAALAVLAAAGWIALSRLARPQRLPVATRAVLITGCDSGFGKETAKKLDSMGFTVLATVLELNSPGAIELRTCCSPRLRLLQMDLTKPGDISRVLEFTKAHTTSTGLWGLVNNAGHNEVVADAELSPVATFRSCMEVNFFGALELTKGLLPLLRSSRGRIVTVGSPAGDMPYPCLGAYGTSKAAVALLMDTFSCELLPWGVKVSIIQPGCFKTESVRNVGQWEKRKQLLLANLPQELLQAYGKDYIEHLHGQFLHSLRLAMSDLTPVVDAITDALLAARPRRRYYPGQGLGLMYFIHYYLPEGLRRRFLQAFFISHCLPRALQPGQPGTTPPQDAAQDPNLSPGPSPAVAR
# Experimental: The resulting solution with a final volume of 100 µL was incubated for 2.5 h at 37 °C. […] The level of unreacted cortisol was measured by a commercially available ELISA kit.
# BJ cells = assay: MTS metabolic activity assay, BJ cells; type: cell-based; settings: Homo sapiens, 72 h, read-out: Cell metabolic activity (MTS), % of untreated control
# Method in brief: (§1)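 24 h post-seeding → compounds, 72 h → MTS 3 h, light-protected → A590/A620. Untreated = 100%. BJ seeded at 2 × 10^3, others 5 × 10^3 cells/0.32 cm^2.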
# [1] = tested on: human colon carcinoma (Caco-2); assay: MTS metabolic activity assay, Caco-2 cells; type: cell-based; settings: 72 h; for cell viability, decreases to: Caco-2, higher concentrations, range given for the most effective substances together; for viability at 10 µM / viability at 20 µM / viability at 50 µM / viability at 100 µM / viability at 200 µM / viability at 300 µM / viability at 500 µM: Homo sapiens, read-out: Cell metabolic activity (MTS), % of untreated control; for viability at 10 µM: Caco-2, 10 µM; for viability at 20 µM: Caco-2, 20 µM; for viability at 50 µM: Caco-2, 50 µM; for viability at 100 µM: Caco-2, 100 µM; for viability at 200 µM: Caco-2, 200 µM; for viability at 300 µM: Caco-2, 300 µM; for viability at 500 µM: Caco-2, 500 µM
# Method in brief: as §1
# [2] = tested on: human pancreatic carcinoma (PANC-1); assay: MTS metabolic activity assay, PANC-1 cells; type: cell-based; settings: for viability at 10 µM / viability at 20 µM / viability at 50 µM / viability at 100 µM / viability at 200 µM / viability at 300 µM / viability at 500 µM: Homo sapiens, 72 h, read-out: Cell metabolic activity (MTS), % of untreated control; for viability at 10 µM: PANC-1, 10 µM; for viability at 20 µM: PANC-1, 20 µM; for viability at 50 µM: PANC-1, 50 µM; for viability at 100 µM: PANC-1, 100 µM; for viability at 200 µM: PANC-1, 200 µM; for viability at 300 µM: PANC-1, 300 µM; for viability at 500 µM: PANC-1, 500 µM
# Method in brief: as §1
# glioma (U-118 MG) = assay: MTS metabolic activity assay, U-118 MG cells; type: cell-based; settings: 72 h; for viability at 10 µM / viability at 20 µM / viability at 50 µM / viability at 100 µM / viability at 200 µM / viability at 300 µM / viability at 500 µM: Homo sapiens, U-118-MG, U118-MG, read-out: Cell metabolic activity (MTS), % of untreated control
# Method in brief: as §1
# [3] = tested on: skin melanoma (SK-MEL-30); assay: MTS metabolic activity assay, SK-MEL-30 cells; type: cell-based; settings: Homo sapiens, 72 h, read-out: Cell metabolic activity (MTS), % of untreated control; for viability at 10 µM: SK-MEL-30, 10 µM; for viability at 20 µM: SK-MEL-30, 20 µM; for viability at 50 µM: SK-MEL-30, 50 µM; for viability at 100 µM: SK-MEL-30, 100 µM; for viability at 200 µM: SK-MEL-30, 200 µM; for viability at 300 µM: SK-MEL-30, 300 µM; for viability at 500 µM: SK-MEL-30, 500 µM
# Method in brief: as §1
# [4] = tested on: human breast carcinoma (MDA-MB-231); assay: MTS metabolic activity assay, MDA-MB-231 cells; type: cell-based; settings: 72 h; for viability at 10 µM / viability at 20 µM / viability at 50 µM / viability at 100 µM / viability at 200 µM / viability at 300 µM / viability at 500 µM: Homo sapiens, read-out: Cell metabolic activity (MTS), % of untreated control; for viability at 10 µM: MDA-MB-231, 10 µM; for viability at 20 µM: MDA-MB-231, 20 µM; for viability at 50 µM: MDA-MB-231, 50 µM; for viability at 100 µM: MDA-MB-231, 100 µM; for viability at 200 µM: MDA-MB-231, 200 µM; for viability at 300 µM: MDA-MB-231, 300 µM; for viability at 500 µM: MDA-MB-231, 500 µM
# Method in brief: as §1
# T1 sequence (P28845 whole entry): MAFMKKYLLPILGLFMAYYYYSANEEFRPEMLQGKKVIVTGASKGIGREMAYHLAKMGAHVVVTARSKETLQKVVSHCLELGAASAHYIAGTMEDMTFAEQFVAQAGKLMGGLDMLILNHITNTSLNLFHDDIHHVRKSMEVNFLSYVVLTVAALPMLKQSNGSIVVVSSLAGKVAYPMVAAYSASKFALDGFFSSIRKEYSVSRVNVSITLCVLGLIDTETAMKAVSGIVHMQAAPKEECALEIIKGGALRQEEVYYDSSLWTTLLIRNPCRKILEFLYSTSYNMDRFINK
structure (smiles),measurement,setting,value
"O=C1N=C(NC2CCCC2)SC12CCCCC2 [Compound 3h, 2-(cyclopentylamino)-1-thia-3-azaspiro[4.5]dec-2-en-4-one]",IC50,11β-HSD1,70 ± 5 nM
same,% of 11β-HSD1 Inhibition 10 μM,"11β-HSD1; 10 µM, 2.5 h, 37 °C",90.49 ± 1.31%
same,inhibition at 10 µM,"11β-HSD1; 10 µM, 2.5 h, 37 °C",90%
same,inhibition at 10 µM,11β-HSD2,< 43%
same,viability at 10 µM,BJ cells,108%
same,viability at 20 µM,BJ cells,106%
same,viability at 50 µM,BJ cells,111%
same,viability at 100 µM,BJ cells,118%
same,viability at 200 µM,BJ cells,122%
same,viability at 300 µM,BJ cells,115%
same,viability at 500 µM,BJ cells,79%
same,"cell viability, decreases to",[1],20–65%
same,viability at 10 µM,[1],96.3%
same,viability at 20 µM,[1],94.2%
same,viability at 50 µM,[1],99.9%
same,viability at 100 µM,[1],96.2%
same,viability at 200 µM,[1],95.6%
same,viability at 300 µM,[1],82.6%
same,viability at 500 µM,[1],65.5%
same,viability at 10 µM,[2],102%
same,viability at 20 µM,[2],96%
same,viability at 50 µM,[2],105%
same,viability at 100 µM,[2],109%
same,viability at 200 µM,[2],117%
same,viability at 300 µM,[2],127%
same,viability at 500 µM,[2],98.4%
same,highest increase in proliferation (cell metabolic activity),"[2]; PANC-1, 72 h, range given for the named substances together",115 to 144%
same,viability at 10 µM,glioma (U-118 MG),111%
same,viability at 20 µM,glioma (U-118 MG),111%
same,viability at 50 µM,glioma (U-118 MG),116%
same,viability at 100 µM,glioma (U-118 MG),116%
same,viability at 200 µM,glioma (U-118 MG),121%
same,viability at 300 µM,glioma (U-118 MG),121%
same,viability at 500 µM,glioma (U-118 MG),99.9%
same,highest increase in proliferation (cell metabolic activity),"glioma (U-118 MG); U-118 MG, range given for the named substances together",115 to 144%
same,viability at 10 µM,[3],96.1%
same,viability at 20 µM,[3],100%
same,viability at 50 µM,[3],102%
same,viability at 100 µM,[3],105%
same,viability at 200 µM,[3],109%
same,viability at 300 µM,[3],106%
same,viability at 500 µM,[3],80.8%
same,viability at 10 µM,[4],91.6%
same,viability at 20 µM,[4],92.7%
same,viability at 50 µM,[4],92.1%
same,viability at 100 µM,[4],93.5%
same,viability at 200 µM,[4],77.1%
same,viability at 300 µM,[4],64.6%
same,viability at 500 µM,[4],45.6%
same,"cell viability, decreases to","[4]; MDA-MB-231, higher concentrations, range given for the most effective substances together",20–65%
"O=C1N=C(NC2CCCC2)SC12CCC2 [Compound 3i, 6-(cyclopentylamino)-5-thia-7-azaspiro[3.4]oct-6-en-8-one]",IC50,11β-HSD1,1550 ± 100 nM
same,inhibition at 10 µM,"11β-HSD1; 10 µM, 2.5 h, 37 °C",71.2 ± 4.77%
same,inhibition at 10 µM,11β-HSD2,46.3 ± 1.22%
same,viability at 10 µM,BJ cells,102%
same,viability at 20 µM,BJ cells,104%
same,viability at 50 µM,BJ cells,105%
same,viability at 100 µM,BJ cells,111%
same,viability at 200 µM,BJ cells,116%
same,viability at 300 µM,BJ cells,121%
same,viability at 500 µM,BJ cells,115%
same,"cell viability, decreases to",[1],20–65%
same,viability at 10 µM,[1],92.2%
same,viability at 20 µM,[1],91.2%
same,viability at 50 µM,[1],92.9%
same,viability at 100 µM,[1],82.5%
same,viability at 200 µM,[1],77.5%
same,viability at 300 µM,[1],69.8%
same,viability at 500 µM,[1],61.5%
same,viability at 10 µM,[2],95.4%
same,viability at 20 µM,[2],93.3%
same,viability at 50 µM,[2],97.3%
same,viability at 100 µM,[2],91.4%
same,viability at 200 µM,[2],91.2%
same,viability at 300 µM,[2],79.7%
same,viability at 500 µM,[2],66.6%
same,viability at 10 µM,glioma (U-118 MG),107%
same,viability at 20 µM,glioma (U-118 MG),108%
same,viability at 50 µM,glioma (U-118 MG),111%
same,viability at 100 µM,glioma (U-118 MG),109%
same,viability at 200 µM,glioma (U-118 MG),112%
same,viability at 300 µM,glioma (U-118 MG),109%
same,viability at 500 µM,glioma (U-118 MG),108%
same,viability at 10 µM,[3],88.1%
same,viability at 20 µM,[3],94%
same,viability at 50 µM,[3],97.3%
same,viability at 100 µM,[3],99%
same,viability at 200 µM,[3],101%
same,viability at 300 µM,[3],102%
same,viability at 500 µM,[3],103%
same,viability at 10 µM,[4],87.2%
same,viability at 20 µM,[4],91.2%
same,viability at 50 µM,[4],89.6%
same,viability at 100 µM,[4],85.1%
same,viability at 200 µM,[4],72.5%
same,viability at 300 µM,[4],69.3%
same,viability at 500 µM,[4],58.7%

# From PMC10139140, “Synthesis of Novel 2-(Cyclopentylamino)thiazol-4(5H)-one Derivatives with Potential Anticancer, Antioxidant, and 11β-HSD Inhibitory Activities” (International Journal of Molecular Sciences, 2023)
